Values of other authors in patent US20260335331A1, “ORAL FORMULATION OF DIAMINOPHENOTHIAZINES AND METHODS OF MAKING AND USING THE SAME IN THE TREATMENT AND/OR PREVENTION OF DISEASES” (priority 2022, published 2026).

Tested on: Macrorhabdus ornithogaster
Conditions: background statement

## C[C@@H]1[C@H](O)[C@@H](C)/C=C/C=C/C=C/C=C/C=C/C=C/C=C/[C@H](O[C@@H]2O[C@H](C)[C@@H](O)[C@H](N)[C@@H]2O)C[C@@H]2O[C@](O)(C[C@@H](O)C[C@@H](O)[C@H](O)CC[C@@H](O)C[C@@H](O)CC(=O)O[C@H]1C)C[C@H](O)[C@H]2C(=O)O [amphotericin B]
  success in treatment of avian megalobacteriosis: Some success has been observed
